# Measured values as given in the supplement of paper PMC10733146.
# Experiments:
# Experiment in all cases: viability relative to DMSO control (fraction); higher = less drug effect (more viable cells)
# Details in all cases: 48 h
# [1] = system: primary ALL patient cells (S048)
# Outline: (§1)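 Viability was measured as CellTiter-Glo luminescence relative to the median of 16 inner DMSO wells. Primary mononuclear tumour cells, fresh or cryopreserved, were Ficoll-isolated from blood or bone marrow or taken from processed lymph node. They were seeded at 4 × 10^4 cells per well into 384-well plates holding pre-plated compounds at five concentrations, one well each, and kept in RPMI-1640 with penicillin/streptomycin, L-glutamine and human serum at 37 °C and 5% CO2 for 48 h.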
# [2] = system: primary ALL patient cells (S088)
# Outline: as §1
# [3] = system: primary AML patient cells (S002)
# Outline: as §1
# [4] = system: primary AML patient cells (S009)
# Outline: as §1
# [5] = system: primary AML patient cells (S017)
# Outline: as §1
# [6] = system: primary AML patient cells (S019)
# Outline: as §1
# [7] = system: primary AML patient cells (S021)
# Outline: as §1
# [8] = system: primary AML patient cells (S025)
# Outline: as §1
# [9] = system: primary AML patient cells (S055)
# Outline: as §1
# [10] = system: primary AML patient cells (S060)
# Outline: as §1
# [11] = system: primary AML patient cells (S071)
# Outline: as §1
# [12] = system: primary AML patient cells (S072)
# Outline: as §1
# [13] = system: primary AML patient cells (S079)
# Outline: as §1
# [14] = system: primary AML patient cells (S089)
# Outline: as §1
# [15] = system: primary AML patient cells (S091)
# Outline: as §1
# [16] = system: primary B-PLL patient cells (S016)
# Outline: as §1
# [17] = system: primary DLBCL patient cells (S082)
# Outline: as §1
# [18] = system: primary FL patient cells (S022)
# Outline: as §1
# [19] = system: primary FL patient cells (S087)
# Outline: as §1
# [20] = system: primary MCL patient cells (S053)
# Outline: as §1
structure (smiles),measurement,setting,value
Nc1ncn([C@@H]2O[C@H](CO)[C@@H](O)[C@H]2O)c(=O)n1 [Azacytidine (Vidaza)],viability,[1]; 0.032 µM,0.926
same,viability,[1]; 0.16 µM,0.989
same,viability,[1]; 0.8 µM,0.695
same,viability,[1]; 4 µM,0.239
same,viability,[1]; 20 µM,0.102
same,viability,[2]; 0.032 µM,0.958
same,viability,[2]; 0.16 µM,1.06
same,viability,[2]; 0.8 µM,0.934
same,viability,[2]; 4 µM,0.552
same,viability,[2]; 20 µM,0.233
same,viability,[3]; 0.032 µM,0.946
same,viability,[3]; 0.16 µM,0.979
same,viability,[3]; 0.8 µM,0.667
same,viability,[3]; 4 µM,0.31
same,viability,[3]; 20 µM,0.229
same,viability,[4]; 0.032 µM,0.943
same,viability,[4]; 0.16 µM,0.905
same,viability,[4]; 0.8 µM,0.916
same,viability,[4]; 4 µM,0.695
same,viability,[4]; 20 µM,0.468
same,viability,[5]; 0.032 µM,0.912
same,viability,[5]; 0.16 µM,0.96
same,viability,[5]; 0.8 µM,0.935
same,viability,[5]; 4 µM,0.661
same,viability,[5]; 20 µM,0.562
same,viability,[6]; 0.032 µM,0.935
same,viability,[6]; 0.16 µM,1.34
same,viability,[6]; 0.8 µM,0.986
same,viability,[6]; 4 µM,0.522
same,viability,[6]; 20 µM,0.308
same,viability,[7]; 0.032 µM,0.982
same,viability,[7]; 0.16 µM,1.17
same,viability,[7]; 0.8 µM,0.936
same,viability,[7]; 4 µM,0.501
same,viability,[7]; 20 µM,0.31
same,viability,[8]; 0.032 µM,1.07
same,viability,[8]; 0.16 µM,0.961
same,viability,[8]; 0.8 µM,0.757
same,viability,[8]; 4 µM,0.285
same,viability,[8]; 20 µM,0.0947
same,viability,[9]; 0.032 µM,1.04
same,viability,[9]; 0.16 µM,1.05
same,viability,[9]; 0.8 µM,0.806
same,viability,[9]; 4 µM,0.233
same,viability,[9]; 20 µM,0.0906
same,viability,[10]; 0.032 µM,1
same,viability,[10]; 0.16 µM,1.02
same,viability,[10]; 0.8 µM,1.02
same,viability,[10]; 4 µM,1.02
same,viability,[10]; 20 µM,0.923
same,viability,[11]; 0.032 µM,0.968
same,viability,[11]; 0.16 µM,0.985
same,viability,[11]; 0.8 µM,0.695
same,viability,[11]; 4 µM,0.29
same,viability,[11]; 20 µM,0.131
same,viability,[12]; 0.032 µM,1.03
same,viability,[12]; 0.16 µM,1.02
same,viability,[12]; 0.8 µM,0.958
same,viability,[12]; 4 µM,0.83
same,viability,[12]; 20 µM,0.652
same,viability,[13]; 0.032 µM,0.972
same,viability,[13]; 0.16 µM,1.09
same,viability,[13]; 0.8 µM,0.942
same,viability,[13]; 4 µM,0.671
same,viability,[13]; 20 µM,0.304
same,viability,[14]; 0.032 µM,0.841
same,viability,[14]; 0.16 µM,1.05
same,viability,[14]; 0.8 µM,0.67
same,viability,[14]; 4 µM,0.0823
same,viability,[14]; 20 µM,0.0388
same,viability,[15]; 0.032 µM,0.933
same,viability,[15]; 0.16 µM,1.02
same,viability,[15]; 0.8 µM,0.892
same,viability,[15]; 4 µM,0.788
same,viability,[15]; 20 µM,0.621
same,viability,[16]; 0.032 µM,1.03
same,viability,[16]; 0.16 µM,1.06
same,viability,[16]; 0.8 µM,0.912
same,viability,[16]; 4 µM,0.142
same,viability,[16]; 20 µM,0.0474
same,viability,[17]; 0.032 µM,0.969
same,viability,[17]; 0.16 µM,1.08
same,viability,[17]; 0.8 µM,1.07
same,viability,[17]; 4 µM,1.04
same,viability,[17]; 20 µM,0.26
same,viability,[18]; 0.032 µM,1.03
same,viability,[18]; 0.16 µM,1
same,viability,[18]; 0.8 µM,1.01
same,viability,[18]; 4 µM,0.949
same,viability,[18]; 20 µM,0.624
same,viability,[19]; 0.032 µM,1.1
same,viability,[19]; 0.16 µM,1.06
same,viability,[19]; 0.8 µM,0.997
same,viability,[19]; 4 µM,0.906
same,viability,[19]; 20 µM,0.678
same,viability,[20]; 0.032 µM,0.924
same,viability,[20]; 0.16 µM,0.999
same,viability,[20]; 0.8 µM,0.587
same,viability,[20]; 4 µM,0.351
same,viability,[20]; 20 µM,0.289
